Patent US6521222B1, “Inorganic/organic complexes for reducing skin irritation” (Societe L'Oreal S.A., priority 1999, dated 2003)

Columns and labels:
[1] = tested on: keratinocytes of Episkin human epidermis reconstituted in vitro; test: Cytotoxicity (MTT test) on Episkin reconstructed skin after applying compositions; format: cell-based; details: 0.3% (w/V) 5-n-octanoylsalicylic acid added to composition A
Description: (§1) The Episkin system is a model of human epidermis reconstituted in vitro, which was manufactured by the company Episkin. The epidermis contained only one cell type: keratinocytes. The keratinocytes were seeded onto a dermis equivalent which was composed of various types of collagen.
(§2) After a period of proliferation of the keratinocytes immersed in the culture medium, the system was raised up to the air/liquid interface.
(§3) The assignee hereof has studied the cytotoxicity of the keratinocytes (3-(4,5-dimethylthiazol-2-yl)-2,5-diphenyltetrazolium bromide test) after applying to this reconstructed skin model various compositions in a proportion of 150 mg/cm^2, and maintaining same in an incubator at 37° C./5% CO2 for a period of 18 hours. Each composition was tested on two epidermides of 1.13 cm^2.
(§4) The basic composition A was:
(§5) The other compositions tested corresponded to this composition A to which 5-n-octanoylsalicylic acid, alone or in admixture with a compound of formula (I) according to the invention, was added.
(§6) The measurement of cell viability was carried out immediately after rinsing of the compositions with phosphate buffered saline (PBS).

[2] = as above; format: cell-based, human; details: human; composition A + 0.5% (w/V) 5-n-octanoylsalicylic acid, no compound of formula (I); 150 mg/cm^2, 18 hours, 37° C./5% CO2; read-out: % of cell viability
Description: as §1, §2, §3, §4, §5, §6

With `CCCCCCCC(=O)c1ccc(O)c(C(=O)O)c1` [5-n-octanoylsalicylic acid] as the compound, how does the “cytotoxicity of the composition” value [1] read?
The value was “cytotoxic”.

And the viability at 18 h, 0.5 % (w/V) [2]?
The viability at 18 h, 0.5 % (w/V) was 7.8%.
